What was measured:
[1] = system: virus H1N1 A/Weiss/43; experiment: microbe, parasite or virus in culture; format: cell-based; details: Influenza A virus, 120 h; inhibition of CPE caused by A/Weiss/43(H1N1) in MDCK cells, 5 days, CCK-8
[2] = SD, rat, in vivo, po, 5 mg/kg
Description: (§1) Pharmacokinetic characteristics of the compound of the invention in SD rat were evaluated. The compounds disclosed herein were administered in form of a saline solution containing 5% DMSO, 5% Kolliphor HS 15 and 90% Saline. For intravenous administration (i.v.), the animals were administered with a dose of 1 mg/kg, and blood samples (0.3 mL) were collected at the time points of 0.083, 0.25, 0.5, 1.0, 2.0, 5.0, 7.0 and 24 h after drug administration, then each blood sample was processed to separate plasma by centrifugation at 3000 rpm or 4000 rpm for 10 minutes. For oral administration (p.o.), the animals were administered with a dose of 5 mg/kg, and blood samples (0.3 mL) were collected at the time points of 0.25, 0.5, 1.0, 2.0, 5.0, 7.0 and 24 h after drug administration, then each blood sample was processed to separate plasma by centrifugation at 3000 rpm or 4000 rpm for 10 minutes. Plasma samples were collected and stored at −20° C. or −70° C. until LC/MS/MS analysis.

[3] = in vivo; details: SD, rat
Description: as §1

Compound | EC50 [1] [nM] | F [2] [%] | AUC(0-inf) ([3]; iv, 1 mg/kg) [ng·h/mL] | AUC(0-t) ([3]; iv, 1 mg/kg) [ng·h/mL] | Cmax ([3]; iv, 1 mg/kg) [ng/mL] | Tmax ([3]; iv, 1 mg/kg) [h] | Vd ([3]; iv, 1 mg/kg) [L/kg] | clearance ([3]; iv, 1 mg/kg) [mL/min/kg] | half-life ([3]; iv, 1 mg/kg) [h] | AUC(0-inf) ([3]; po, 5 mg/kg) [ng·h/mL] | AUC(0-t) ([3]; po, 5 mg/kg) [ng·h/mL] | Cmax ([3]; po, 5 mg/kg) [ng/mL] | Tmax ([3]; po, 5 mg/kg) [h] | half-life ([3]; po, 5 mg/kg) [h]
N#Cc1c(-c2c[nH]c3c(F)cc(F)cc23)nc(NC2C3CCC(CC3)C2C(=O)O)c(F)c1-c1ccco1 (racemic) [Example 1, (+/−)-trans-3-((5-cyano-6-(5,7-difluoro-1H-indol-3-yl)-3-fluoro-4-(furan-2-yl)pyridin-2-yl)amino)bicyclo[2.2.2]octane-2-carboxylic Acid] | 0.27 | 83.9 | 5710 | 5680 | 6560 | 0.083 | 0.231 | 3.86 | 1.24 | 21600 | 21300 | 5780 | 1.1 | 1.52
N#Cc1c(-c2c[nH]c3c(F)cc(F)cc23)nc(NC2C3CCC(CC3)C2C(=O)O)c(F)c1-c1ccc(C(F)(F)F)cc1 (racemic) [Example 3, (+/−)-trans-3-((5-cyano-6-(5,7-difluoro-1H-indol-3-yl)-3-fluoro-4-(4-trifluoromethylphenyl)pyridin-2-yl)amino)bicyclo[2.2.2]octane-2-carboxylic Acid] | – | 104.6 | 2620 | 2580 | 4340 | 0.083 | 1.98 | 7.18 | 1.13 | 13100 | 12600 | 8860 | 0.35 | 1.76
N#Cc1c(-c2c[nH]c3c(F)cc(F)cc23)nc(NC2C3CCC(CC3)C2C(=O)O)c(F)c1C1CC1 (racemic) [Example 8, (+/−)-trans-3-((5-cyano-4-cyclopropyl-6-(5,7-difluoro-1H-indol-3-yl)-3-fluoropyridin-2-yl)amino)bicyclo[2.2.2]octane-2-carboxylic Acid] | 5.09 | – | – | – | – | – | – | – | – | – | – | – | – | –
N#Cc1c(-c2c[nH]c3ncc(F)cc23)nc(NC2C3CCC(CC3)C2C(=O)O)c(F)c1C1CC1 (racemic) [Example 9, (+/−)-trans-3-((5-cyano-4-cyclopropyl-3-fluoro-6-(5-fluoro-1H-pyrrolo[2,3-b]pyridin-3-yl)pyridin-2-yl)amino)bicyclo[2.2.2]octane-2-carboxylic Acid] | 0.49 | 65.2 | 2710 | 2640 | 3640 | 0.083 | 0.551 | 5.46 | 2.15 | 8230 | 8140 | 2850 | 0.46 | 3.39
N#Cc1c(-c2c[nH]c3c(F)cc(F)cc23)nc(NC2C3CCC(CC3)C2C(=O)O)c(F)c1-c1ccccc1 (racemic) [Example 14, (+/−)-trans-3-((5-cyano-6-(5,7-difluoro-1H-indol-3-yl)-3-fluoro-4-phenylpyridin-2-yl)amino)bicyclo[2.2.2]octane-2-carboxylic Acid] | 10.5 | 74.6 | 3520 | 3450 | 4130 | 0.083 | 0.432 | 5.12 | 1.31 | 10300 | 10100 | 2980 | 1.22 | 1.46
Cn1ccc2c(NC3C4CCC(CC4)C3C(=O)O)nc(-c3c[nH]c4ncc(F)cc34)cc21 (racemic) [Example 20, (+/−)-trans-3-((6-(5-fluoro-1H-pyrrolo[2,3-b]pyridin-3-yl)-1-methyl-1H-pyrrolo[3,2-c]pyridin-4-yl)amino)bicyclo[2.2.2]octane-2-carboxylic Acid] | 2.58 | – | – | – | – | – | – | – | – | – | – | – | – | –
Cn1cc(-c2c(F)c(N[C@H]3C4CCC(CC4)[C@@H]3C(=O)O)nc(-c3c[nH]c4c(F)cc(F)cc34)c2C#N)cn1 [Example 12a, (2S,3S)-3-((5-cyano-6-(5,7-difluoro-1H-indol-3-yl)-3-fluoro-4-(1-methyl-1H-pyrazol-4-yl)pyridin-2-yl)amino)bicyclo[2.2.2]octane-2-carboxylic Acid] | 0.96 | – | – | – | – | – | – | – | – | – | – | – | – | –

From patent US10647693B2, “Inhibitors of influenza virus replication, application methods and uses thereof” (SUNSHINE LAKE PHARMA CO., LTD., priority 2016, dated 2020)
